In PMC7821181, “MS Binding Assays for Glycine Transporter 2 (GlyT2) Employing Org25543 as Reporter Ligand” (Chemmedchem, 2020):
Where “and” joins values, the source holds several entries; their conditions need not be identical. Identical values can stand only once. Entries after “also recorded” stand apart in the source; their conditions may differ. Like-named read-outs stand apart in the source and are kept apart here.

Key:
GlyT2 [1] = conditions: ref 23; read-out: IC50 in [3H]glycine uptake assay; cited from earlier work
GlyT2 [2] = system: GlyT2; set-up: method as in PMID 15964938; conditions: ref 27; read-out: IC50 in FLIPR membrane potential assay; cited from earlier work
GlyT2 [3] = conditions: ref 23, 27; read-out: IC50 (literature range); cited from earlier work
hGlyT2 = target: T1, hGlyT2 (Homo sapiens, UniProt Q9Y345); experiment: GlyT2 MS Binding Assays: kinetic (dissociation and association) experiments
T1 construct: host or cells: HEK293 cells stably expressing hGlyT2; crude membrane fractions
T1 sequence (Q9Y345 1-797): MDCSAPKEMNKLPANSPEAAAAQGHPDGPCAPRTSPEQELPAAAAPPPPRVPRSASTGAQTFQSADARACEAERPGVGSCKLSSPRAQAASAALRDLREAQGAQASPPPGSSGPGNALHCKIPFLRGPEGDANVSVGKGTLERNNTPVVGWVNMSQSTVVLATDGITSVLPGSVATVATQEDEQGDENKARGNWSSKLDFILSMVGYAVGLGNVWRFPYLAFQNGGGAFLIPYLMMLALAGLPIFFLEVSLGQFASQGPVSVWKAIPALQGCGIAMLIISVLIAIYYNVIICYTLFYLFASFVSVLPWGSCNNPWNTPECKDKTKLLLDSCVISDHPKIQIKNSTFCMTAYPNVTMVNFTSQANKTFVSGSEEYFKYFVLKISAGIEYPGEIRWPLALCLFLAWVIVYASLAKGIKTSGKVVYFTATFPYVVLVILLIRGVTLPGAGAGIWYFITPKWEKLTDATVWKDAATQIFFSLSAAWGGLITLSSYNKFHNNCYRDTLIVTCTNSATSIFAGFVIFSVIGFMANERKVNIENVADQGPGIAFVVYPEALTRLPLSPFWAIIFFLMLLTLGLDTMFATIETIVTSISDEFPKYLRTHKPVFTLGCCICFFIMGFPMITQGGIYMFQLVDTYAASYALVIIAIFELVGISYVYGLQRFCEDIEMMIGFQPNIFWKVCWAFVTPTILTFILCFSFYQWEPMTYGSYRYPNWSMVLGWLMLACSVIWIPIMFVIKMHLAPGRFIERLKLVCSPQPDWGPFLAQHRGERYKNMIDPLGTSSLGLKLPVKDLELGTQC
Procedure: For the determination of the dissociation rate constant of Org25543 the so‐called displacer method was applied. Thus, after the target protein GlyT2 had been incubated with the reporter ligand Org25543 at a defined concentration (final concentration: 10 nM) and the binding allowed to reach equilibrium (1 h) dissociation was initiated by addition of 8 (final concentration: 30 μM). Overall, 12 samples were taken, the first after 15 s and the last after 3 h, and processed as described for competitive binding experiments. The same way nonspecific binding was determined except that the target protein had been subjected to a heat‐shock before. Plotting of specific binding calculated from total and nonspecific binding against time yielded the respective dissociation curves.
Next, for the determination of the association kinetics of Org25543 association experiments had to be performed. By the knowledge of [L] and k off, from k obs as the primary result of such experiments, finally, the derived rate constant k on becomes accessible by using the relation given at Equation 1, the transformed form of which is Equation 2. (1) kobs=kon×L+koff (2) kon=(kobs-koff)/L
For the determination of k obs Org25543 was added to the target protein, to start the association process, which was then stopped at eleven different time points (15 s–2 h), to measure the amount of bound marker at these defined time points. The nonspecific binding was determined for the same time points like for total binding samples but utilizing target material that had been subjected to a heat‐shock before. The concentration of the reporter ligand Org25543 was set to a value of 10 nM. […] For the establishment of association curves specific binding calculated from total binding and nonspecific binding was plotted against time.
Dissociation experiments via displacing Org25543 from GlyT2 with an excess of competitor were performed in 25 mL round bottom flasks made of glass (Duran Wheaton Kimble Life Sciences GmbH, Wertheim, Germany). For determining dissociation rate constants by the displacer approach GlyT2 membrane fractions were pre‐incubated with Org25543 at a nominal concentration of 10 nM at 37 °C in a water bath for 1 h in a total volume of 24.85 mL. The solution and the water bath were stirred constantly with magnetic stir bars at a frequency of ∼500 rpm. After 1 h of incubation dissociation was initiated by adding 150 μL of 8 resulting in […] of 30 μM. After defined time points (15 s–3 h, twelve dissociation time points, samples for each time point were prepared in triplicates) dissociation was terminated via vacuum filtration and the samples were treated the same way as described in Experimental Section MS Binding Assay: General procedure. Nonspecific binding was determined at the same time points as for the dissociation samples but incubating 10 nM Org25543 in the presence of 30 μM 8 and heat‐shocked GlyT2 membrane preparations (triplicate).

For `COc1cc(C(=O)NCC2(N(C)C)CCCC2)cc(OC)c1OCc1ccccc1` [Org25543, N‐[[1‐(dimethylamino)cyclopentyl]methyl]‐3,5‐dimethoxy‐4‐(phenylmethoxy)benzamide], the IC50 (GlyT2 [1]) is given as 16 ± 1.9 nM, the IC50 (GlyT2 [2]) is given as 31 ± 6 nM and the IC50 (GlyT2 [3]) is given as 16 to 31 nM. For the same molecule, the Kd (hGlyT2) was 6.99 nM, the “k obs (observed association rate constant)” value (hGlyT2; Org25543 10 nM, 37 °C, mean±SEM, n=3) was 1.72±0.01×10^−2 s^−1 and 1.72×10^−2 s^−1 and the koff (hGlyT2; Org25543 10 nM, displacement by 30 μM 8, 37 °C, mean±SEM, n=3, read-out: k off (dissociation rate constant)) was 0.00707 s⁻¹. For the same molecule, the kon (hGlyT2; calculated as (k obs−k off)/L, read-out: k on (association rate constant)) was 1.01e+06 M⁻¹ s⁻¹ and the “reversibility of binding at GlyT2, in words” value (hGlyT2; dissociation experiments) was “fully reversible; also recorded: full reversibility”.
